Reference: ChEMBL document CHEMBL1629662, “Antimicrobial activity of prulifloxacin tested against a worldwide collection of gastroenteritis-producing pathogens, including those causing traveler's diarrhea” (2009)
≈ marks a conversion by molar mass, not a printed value.

What was measured:
[1] = system: Vibrio parahaemolyticus; experiment: Antibacterial activity against Vibrio parahaemolyticus by broth microdilution method; assay type: functional
[2] = system: Aeromonas caviae; experiment: Antibacterial activity against Aeromonas caviae by broth microdilution method; assay type: functional
[3] = system: Shigella dysenteriae; experiment: Antibacterial activity against Shigella dysenteriae by broth microdilution method; assay type: functional
[4] = system: Vibrio sp.; experiment: Antibacterial activity against Vibrio sp. by broth microdilution method; assay type: functional
[5] = system: Yersinia pseudotuberculosis; experiment: Antibacterial activity against Yersinia pseudotuberculosis assessed as percent susceptible isolates by broth microdilution method; assay type: functional
[6] = system: Salmonella typhimurium; experiment: Antibacterial activity against Salmonella enterica serovar Typhimurium by broth microdilution method; assay type: functional, Salmonella enterica subsp. enterica serovar Typhimurium
[7] = system: Plesiomonas shigelloides; experiment: Antibacterial activity against Plesiomonas shigelloides assessed as percent resistant isolates by broth microdilution method; assay type: functional
[8] = system: Salmonella enteritidis; experiment: Antibacterial activity against Salmonella enterica serovar Enteritidis assessed as percent susceptible isolates by broth microdilution method; assay type: functional, Salmonella enterica subsp. enterica serovar Enteritidis; conditions: pooled result: one value given for 5 cell lines, strains, targets or settings
[9] = system: Shigella sonnei; experiment: Antibacterial activity against Shigella sonnei by broth microdilution method; assay type: functional
[10] = system: Vibrio cholerae; experiment: Antibacterial activity against Vibrio cholerae assessed as percent resistant isolates by broth microdilution method; assay type: functional
[11] = system: Aeromonas veronii; experiment: Antibacterial activity against Aeromonas veronii assessed as percent resistant isolates by broth microdilution method; assay type: functional
[12] = system: Yersinia enterocolitica; experiment: Antibacterial activity against Yersinia enterocolitica assessed as percent resistant isolates by broth microdilution method; assay type: functional
[13] = system: Escherichia coli; experiment: Antibacterial activity against Escherichia coli assessed as percent susceptible isolates by broth microdilution method; assay type: functional
[14] = system: Yersinia enterocolitica; experiment: Antibacterial activity against Yersinia enterocolitica by broth microdilution method; assay type: functional
[15] = Antibacterial activity against Salmonella enterica serovar Heidelberg by broth microdilution method; assay type: functional, Salmonella enterica subsp. enterica serovar Heidelberg
[16] = system: Vibrio alginolyticus; experiment: Antibacterial activity against Vibrio alginolyticus assessed as percent resistant isolates by broth microdilution method; assay type: functional
[17] = system: Yersinia enterocolitica; experiment: Antibacterial activity against Yersinia enterocolitica assessed as percent susceptible isolates by broth microdilution method; assay type: functional
[18] = system: Shigella boydii; experiment: Antibacterial activity against Shigella boydii assessed as percent susceptible isolates by broth microdilution method; assay type: functional; conditions: pooled result: one value given for 3 cell lines, strains, targets or settings
[19] = system: Campylobacter coli; experiment: Antibacterial activity against Campylobacter coli by broth microdilution method; assay type: functional
[20] = system: Escherichia coli; experiment: Antibacterial activity against Escherichia coli assessed as percent resistant isolates by broth microdilution method; assay type: functional
[21] = system: Vibrio fluvialis; experiment: Antibacterial activity against Vibrio fluvialis assessed as percent resistant isolates by broth microdilution method; assay type: functional
[22] = system: Vibrio parahaemolyticus; experiment: Antibacterial activity against Vibrio parahaemolyticus assessed as percent susceptible isolates by broth microdilution method; assay type: functional
[23] = system: Vibrio vulnificus; experiment: Antibacterial activity against Vibrio vulnificus assessed as percent susceptible isolates by broth microdilution method; assay type: functional
[24] = system: Salmonella enteritidis; experiment: Antibacterial activity against Salmonella enterica serovar Enteritidis by broth microdilution method; assay type: functional, Salmonella enterica subsp. enterica serovar Enteritidis
[25] = system: Aeromonas hydrophila; experiment: Antibacterial activity against Aeromonas hydrophila assessed as percent resistant isolates by broth microdilution method; assay type: functional
[26] = system: Vibrio sp.; experiment: Antibacterial activity against Vibrio sp. assessed as percent susceptible isolates by broth microdilution method; assay type: functional
[27] = system: Aeromonas hydrophila; experiment: Antibacterial activity against Aeromonas hydrophila by broth microdilution method; assay type: functional
[28] = system: Campylobacter jejuni; experiment: Antibacterial activity against Campylobacter jejuni by broth microdilution method; assay type: functional
[29] = system: Salmonella paratyphi; experiment: Antibacterial activity against Salmonella enterica serovar Paratyphi by broth microdilution method; assay type: functional, Salmonella enterica subsp. enterica serovar Paratyphi A
[30] = system: Escherichia coli; experiment: Antibacterial activity against Escherichia coli by broth microdilution method; assay type: functional
[31] = system: Aeromonas sobria; experiment: Antibacterial activity against Aeromonas sobria assessed as percent susceptible isolates by broth microdilution method; assay type: functional
[32] = system: Vibrio alginolyticus; experiment: Antibacterial activity against Vibrio alginolyticus by broth microdilution method; assay type: functional
[33] = system: Vibrio cholerae; experiment: Antibacterial activity against Vibrio cholerae by broth microdilution method; assay type: functional
[34] = Antibacterial activity against Salmonella enterica serovar Virchow by broth microdilution method; assay type: functional, Salmonella enterica subsp. enterica serovar Virchow
[35] = system: Vibrio cholerae; experiment: Antibacterial activity against Vibrio cholerae assessed as percent susceptible isolates by broth microdilution method; assay type: functional
[36] = system: Aeromonas sobria; experiment: Antibacterial activity against Aeromonas sobria assessed as percent resistant isolates by broth microdilution method; assay type: functional
[37] = system: Shigella flexneri; experiment: Antibacterial activity against Shigella flexneri by broth microdilution method; assay type: functional
[38] = Antibacterial activity against Salmonella enterica serovar Newport by broth microdilution method; assay type: functional, Salmonella enterica subsp. enterica serovar Newport
[39] = system: Aeromonas hydrophila; experiment: Antibacterial activity against Aeromonas hydrophila assessed as percent susceptible isolates by broth microdilution method; assay type: functional
[40] = system: Aeromonas caviae; experiment: Antibacterial activity against Aeromonas caviae assessed as percent susceptible isolates by broth microdilution method; assay type: functional
[41] = system: Vibrio sp.; experiment: Antibacterial activity against Vibrio sp. assessed as percent resistant isolates by broth microdilution method; assay type: functional
[42] = system: Yersinia pseudotuberculosis; experiment: Antibacterial activity against Yersinia pseudotuberculosis by broth microdilution method; assay type: functional
[43] = system: Shigella sonnei; experiment: Antibacterial activity against Shigella sonnei assessed as percent resistant isolates by broth microdilution method; assay type: functional; conditions: pooled result: one value given for 4 cell lines, strains, targets or settings
[44] = system: Salmonella typhi; experiment: Antibacterial activity against Salmonella enterica serovar Typhi by broth microdilution method; assay type: functional, Salmonella enterica subsp. enterica serovar Typhi
[45] = system: Aeromonas veronii; experiment: Antibacterial activity against Aeromonas veronii by broth microdilution method; assay type: functional
[46] = system: Aeromonas sobria; experiment: Antibacterial activity against Aeromonas sobria by broth microdilution method; assay type: functional
[47] = system: Shigella boydii; experiment: Antibacterial activity against Shigella boydii by broth microdilution method; assay type: functional
[48] = system: Vibrio fluvialis; experiment: Antibacterial activity against Vibrio fluvialis by broth microdilution method; assay type: functional
[49] = system: Plesiomonas shigelloides; experiment: Antibacterial activity against Plesiomonas shigelloides assessed as percent susceptible isolates by broth microdilution method; assay type: functional
[50] = system: Vibrio parahaemolyticus; experiment: Antibacterial activity against Vibrio parahaemolyticus assessed as percent resistant isolates by broth microdilution method; assay type: functional
[51] = system: Aeromonas veronii; experiment: Antibacterial activity against Aeromonas veronii assessed as percent susceptible isolates by broth microdilution method; assay type: functional
[52] = system: Vibrio vulnificus; experiment: Antibacterial activity against Vibrio vulnificus by broth microdilution method; assay type: functional
[53] = system: Aeromonas caviae; experiment: Antibacterial activity against Aeromonas caviae assessed as percent resistant isolates by broth microdilution method; assay type: functional
[54] = system: Vibrio fluvialis; experiment: Antibacterial activity against Vibrio fluvialis assessed as percent susceptible isolates by broth microdilution method; assay type: functional
[55] = system: Plesiomonas shigelloides; experiment: Antibacterial activity against Plesiomonas shigelloides by broth microdilution method; assay type: functional
[56] = system: Vibrio vulnificus; experiment: Antibacterial activity against Vibrio vulnificus assessed as percent resistant isolates by broth microdilution method; assay type: functional
[57] = system: Vibrio alginolyticus; experiment: Antibacterial activity against Vibrio alginolyticus assessed as percent susceptible isolates by broth microdilution method; assay type: functional
[58] = system: Salmonella typhimurium; experiment: Antibacterial activity against Salmonella enterica serovar Typhimurium assessed as percent resistant isolates by broth microdilution method; assay type: functional, Salmonella enterica subsp. enterica serovar Typhimurium; conditions: pooled result: one value given for 8 cell lines, strains, targets or settings

Work on `CC1(C)S[C@@H]2[C@H](NC(=O)[C@H](N)c3ccccc3)C(=O)N2[C@H]1C(=O)O` [AMPICILLIN] yielded an MIC50 [1] of 2 µg/mL (≈ 5.72 µM), an MIC90 [1] of 8 µg/mL (≈ 22.9 µM) and an MIC50 [2] of over 256 µg/mL. The MIC90 [2] was over 256 µg/mL, the MIC50 [3] was 128 µg/mL (≈ 366 µM) and the MIC90 [3] was over 256 µg/mL. For the same compound, the MIC50 [4] was 2 µg/mL (≈ 5.72 µM), the MIC90 [4] was 8 µg/mL (≈ 22.9 µM) and the Activity [5] was 6.5%. It also gave an MIC50 [6] of 1 µg/mL (≈ 2.86 µM), an MIC90 [6] of over 256 µg/mL and an Activity [7] of 100%. The Activity [8] was 77.2%, the MIC50 [9] was 128 µg/mL (≈ 366 µM) and the MIC90 [9] was over 256 µg/mL. It also gave an Activity [10] of 0%, an Activity [11] of 98% and an Activity [12] of 91.3%. The Activity [13] was 63%, the MIC50 [14] was 32 µg/mL (≈ 91.6 µM) and the MIC90 [14] was 32 µg/mL (≈ 91.6 µM). The MIC90 [15] was over 256 µg/mL, the Activity [16] was 0% and the Activity [17] was 6.5%. It also gave an Activity [18] of 40.6%, an MIC50 [19] of 2 µg/mL (≈ 5.72 µM) and an MIC90 [19] of 32 µg/mL (≈ 91.6 µM). For the same compound, the Activity [20] was 37%, the Activity [21] was 0% and the Activity [22] was 90%. The Activity [23] was 90%, the MIC50 [24] was 1 µg/mL (≈ 2.86 µM) and the MIC90 [24] was over 256 µg/mL. For the same compound, the Activity [25] was 98%, the Activity [26] was 90% and the MIC50 [27] was over 256 µg/mL. The MIC90 [27] was over 256 µg/mL, the MIC50 [28] was 2 µg/mL (≈ 5.72 µM) and the MIC90 [28] was 32 µg/mL (≈ 91.6 µM). The MIC90 [29] was over 256 µg/mL, the MIC50 [30] was 2 µg/mL (≈ 5.72 µM) and the MIC90 [30] was over 256 µg/mL. It also gave an Activity [31] of 1%, an MIC50 [32] of 2 µg/mL (≈ 5.72 µM) and an MIC90 [32] of 8 µg/mL (≈ 22.9 µM). The MIC50 [33] was 2 µg/mL (≈ 5.72 µM), the MIC90 [33] was 8 µg/mL (≈ 22.9 µM) and the MIC90 [34] was over 256 µg/mL. It also gave an Activity [35] of 90%, an Activity [36] of 98% and an MIC50 [37] of 128 µg/mL (≈ 366 µM). It also gave an MIC90 [37] of over 256 µg/mL, an MIC90 [38] of over 256 µg/mL and an Activity [39] of 1%. For the same compound, the Activity [40] was 1%, the Activity [41] was 0% and the MIC50 [42] was 32 µg/mL (≈ 91.6 µM). It also gave an MIC90 [42] of 32 µg/mL (≈ 91.6 µM), an Activity [43] of 59.4% and an MIC90 [44] of over 256 µg/mL. It also gave an MIC50 [45] of over 256 µg/mL, an MIC90 [45] of over 256 µg/mL and an MIC50 [46] of over 256 µg/mL. It also gave an MIC90 [46] of over 256 µg/mL, an MIC50 [47] of 128 µg/mL (≈ 366 µM) and an MIC90 [47] of over 256 µg/mL. For the same compound, the MIC50 [48] was 2 µg/mL (≈ 5.72 µM), the MIC90 [48] was 8 µg/mL (≈ 22.9 µM) and the Activity [49] was 0%. It also gave an Activity [50] of 0%, an Activity [51] of 1% and an MIC50 [52] of 2 µg/mL (≈ 5.72 µM). It also gave an MIC90 [52] of 8 µg/mL (≈ 22.9 µM), an Activity [53] of 98% and an Activity [54] of 90%. It also gave an MIC [55] of 64 µg/mL (≈ 183 µM), an MIC50 [55] of 64 µg/mL (≈ 183 µM) and an Activity [56] of 0%. For the same compound, the Activity [57] was 90% and the Activity [58] was 22.8%.
